# Results from article PMC10017155 (Aging and Disease, 2023).
# “Also recorded” adds a separate entry of the source. Peptide text beside a SMILES is read from it.
# Tests used:
# C. elegans CL2122 = assay: Lifespan analysis, C. elegans CL2122 (transgenic control); type: in vivo; conditions: for Increase/decrease in lifespan: vs control of same repeat
# Method: C. elegans CL2120 (dvIs14 [(pCL12) unc-54::beta 1-42 +(pCL26) mtl-2::GFP]) and C. elegans CL2122 (dvIs15 [(pPD30.38) unc-54(vector) + (pCL26) mtl-2::GFP]) strains were obtained from the Caenorhabditis Genetics Center. The worms were handled according to standard methods without FUDR [18]. E. coli OP50 bacteria were grown overnight in Luria-Bertani broth and 50µl were spread atop NGM or NGMZn plates. NGMZn has 20μM ZnSO4. Seeded plates were incubated at 30°C for ~16 hours and then for 1-2 hours at 15 or 25°C before worms were transferred. Lifespan and paralysis experiments (see below) were performed at 25°C for enhanced expression of Aβ. This temperature is standard when studying the effects of Aβ on C. elegans CL2120 strain [19].
# Nematodes were purified from unwanted microflora by the alkaline hypochlorite method, grown to the L4 stage at 15°C on NGM plates with bacterial lawn. […] Further, all contents were transferred to Petri plates with NGM or NGMZn with OP50 and placed in a temperature-controlled incubator at 25°C. Next day, worms were transferred onto similar media with a bacterial substrate and the lifespan was determined at 25°C (Supplementary Tables 3, 4).
# Lifespans were monitored at 25°C as described previously. All experiments were repeated at least three times and ≈130 worms were used for each experiment. Details regarding repeated experiments and amounts of animals used for experiments are summarized in Supplementary Tables 3, 4. In all cases, stage L4 worms were used at t = 0 for lifespan analyses and worms were transferred every other day to new agar plates. […] Escaped animals or animals with internal hatching were not included in lifespan calculation. Data was analyzed and Boltzmann sigmoid survival curves generated using the SciDAVis statistical analysis software package. Mean lifespans were compared in Microsoft Excel using the Student t test, applying one-tailed distribution and two-sample equal variance. All lifespan plots represent the composites of all independent experiments tabulated in Supplementary Tables 3, 4. Mean percentage change ±SD of lifespan after treatment, relative to untreated control are indicated in each graph in the same color as the curve.
# H6R-Aβ16 = assay: NMR titration, H6R-Aβ16 dimer with HAEE and Zn2+; type: binding, human; conditions: 1H NMR, H6R-Aβ16 1.6 mM, pH 6.8, 0.5 equivalent ZnCl2, titration by HAEE; V12 methyl signal at 0.2 ppm
# Method: (§1) Peptides Aβ16, H6R-Aβ16 and isoD7-Aβ16 at the concentration of 0.2 - 8mM were dissolved in 10-20 mM bis-Tris-d19 (2,2-Bis(hydroxymethyl)-2,2′,2"-nitrilotrie-thanol-d19 with 98% ^2D enrichment) buffer solution (pH 6.8). Sodium salt of 3-(trimethylsilyl) propionic-2,2,3,3-d4 acid (DSS) at a concentration of 10-20 μM was added as the standard. NMR spectra were measured at 278 K in 90% H2O/10% D2O with Bruker AVANCE 600 MHz spectrometer equipped with triple resonance (^1H, ^13C and ^15N) pulsed field z gradient probe. 1D NMR spectra were processed and analyzed using the Mnova software (Mestrelab Research, Spain). In order to monitor peptide-peptide interactions NMR titration experiments were carried out. […] 1D spectra were recorded for each titration point.
# Figure 1. Interaction of HAEE with beta-amyloid. (A) A model for the contribution of isoD7-Aβ to AD pathology, and the possible ways of preventing its deleterious effects. Aβ spontaneously converts into isoD7-Aβ, which is accumulated over age, likely due to reduced Aβ clearance. Isomerized Aβ promotes AD pathology, potentially via formation of Zn-bound complexes serving as the seeds for a generation of neurotoxic oligomers. […] The amount of dimeric form is determined by the intensity of its characteristic signal at 0.2 ppm. […]
# immobilized Aβ42 = target: T1, immobilized Aβ42 (Homo sapiens, UniProt P05067); assay: SPR analysis of HAEE binding to immobilized Aβ42
# T1 construct: Aβ42 ([…] […]); purchased Biopeptide Co., LLC (San Diego, CA, USA); host or cells: chemical synthesis
# T1 sequence (P05067 672-713): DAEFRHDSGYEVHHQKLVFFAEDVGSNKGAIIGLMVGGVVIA
# Method: All SPR measurements were carried out at 25°C using an optical biosensor Biacore 8K (GE Healthcare, USA) with CM4 optical chip. Covalent immobilization of the peptide ligands on the surface of the optical chip was performed using the sulfhydryl group of the C-terminal tetragly-cylcysteine tag. Briefly, carboxyl groups on the chip surface were activated by serial injections of mixture of 0.4 M EDC/0.1 M NHS at a flow rate of 10 μL/min for 2 min and a solution of 80 mM PDEA in 100 mM borate buffer (pH 8.5) for 4 min. Solutions of 2 μM peptides in the immobilization buffer (10 mM acetate buffer, pH 4.5) were injected for 2 min at a flow rate of 10 μL/min (three repeats). Unreacted activated groups on the chip were blocked by further injection of a solution containing 50 mM cysteine, 1 M NaCl, 0.1 M sodium acetate (pH 4.3) for 4 min at a flow rate of 5 μL/min. Possible nonspecific analyte binding to the chip surface was evaluated using a free (control) channel of the biosensor exposed to the same treatments as the working channel except peptides. SPR signals were recorded in real time in resonance units (RU; 1 RU corresponds to […]) and were presented in the form of sensorgrams showing time-dependent signal changes. […] The obtained sensorgrams were analyzed with BIAevaluation v.4.1 software.
# Aβ16 = assay: NMR titration, Aβ16 with HAEE and Zn2+; type: binding; conditions: 278 K, pH 6.8, Zn2+
# Method: as §1
# [1] = CL2122, NGM (no Zn), replicate 1
# [2] = CL2122, NGM (no Zn), replicate 2
# [3] = CL2122, NGM (no Zn), replicate 3
compound,measurement,setting,value
"CC(=O)N[C@@H](Cc1c[nH]cn1)C(=O)N[C@@H](C)C(=O)N[C@@H](CCC(=O)O)C(=O)N[C@@H](CCC(=O)O)C(N)=O [HAEE, Ac-HAEE-NH2] (Ac-HAEE-NH2)",Effect of HAEE itself on lifespan,"C. elegans CL2122; CL2122, HAEE 4 mM",no effect
same,Mean survival,"C. elegans CL2122; CL2122, NGM (no Zn), Aβ42 or isoD7-Aβ42 40 μM, HAEE 4 mM, 25°C, mean ± SD of 3 experiments",9.07 ± 0.25 days
same,50% survival,C. elegans CL2122; [1],8.8 days
same,50% survival,C. elegans CL2122; [2],9.3 days
same,50% survival,C. elegans CL2122; [3],9.1 days
same,Mean increase/decrease in lifespan,"C. elegans CL2122; CL2122, NGM (no Zn), vs control NGM, mean ± SD of 3 experiments",0.03±1.89%
same,Increase/decrease in lifespan,C. elegans CL2122; [1],1.15%
same,Increase/decrease in lifespan,C. elegans CL2122; [2],1.09%
same,Increase/decrease in lifespan,C. elegans CL2122; [3],-2.15%
same,Effect on lifespan,"C. elegans CL2122; CL2122, NGM, without Zn2+, 25°C",do not affect
same,50% survival,"C. elegans CL2122; CL2122, NGMZn, replicate 1",8.8 days
same,50% survival,"C. elegans CL2122; CL2122, NGMZn, replicate 2",9.1 days
same,50% survival,"C. elegans CL2122; CL2122, NGMZn, replicate 3",8.9 days
same,Mean increase/decrease in lifespan,"C. elegans CL2122; CL2122, NGMZn, vs control NGMZn, mean ± SD of 3 experiments",-1.05 ±2.87%
same,Increase/decrease in lifespan,"C. elegans CL2122; CL2122, NGMZn, replicate 1",1.15%
same,Increase/decrease in lifespan,"C. elegans CL2122; CL2122, NGMZn, replicate 2",0%
same,Increase/decrease in lifespan,"C. elegans CL2122; CL2122, NGMZn, replicate 3",-4.3%
same,Amount of dimeric form of H6R-Aβ16 upon addition of HAEE,H6R-Aβ16,decrease in the amount of dimeric H6R-Aβ16; also recorded: disappearance of the dimeric form; also recorded: shifts the equilibrium between monomeric and dimeric Aβ towards its monomeric form
same,Kd,immobilized Aβ42,4.1 ± 0.3 µM
same,Interaction with immobilized Aβ42 in the absence of Zn2+,"immobilized Aβ42; SPR, 10 mM HEPES, pH 6.8, no Zn2+, 25°C",no interaction
same,Signal at 0.2 ppm (characteristic of the dimeric form of the Aβ metal binding domain),Aβ16; 1H NMR,eliminated the signal
same,Zinc-dependent dimerization of Aβ16,Aβ16; NMR,inhibits
